Source: ChEMBL document CHEMBL1130055, “Discovery of a novel class of selective non-peptide antagonists for the human neurokinin-3 receptor. 1. Identification of the 4-quinolinecarboxamide framework” (J Med Chem, 1997)

Biological target: T1, Substance-K receptor (Homo sapiens, UniProt P21452)
T1 sequence (P21452 whole entry): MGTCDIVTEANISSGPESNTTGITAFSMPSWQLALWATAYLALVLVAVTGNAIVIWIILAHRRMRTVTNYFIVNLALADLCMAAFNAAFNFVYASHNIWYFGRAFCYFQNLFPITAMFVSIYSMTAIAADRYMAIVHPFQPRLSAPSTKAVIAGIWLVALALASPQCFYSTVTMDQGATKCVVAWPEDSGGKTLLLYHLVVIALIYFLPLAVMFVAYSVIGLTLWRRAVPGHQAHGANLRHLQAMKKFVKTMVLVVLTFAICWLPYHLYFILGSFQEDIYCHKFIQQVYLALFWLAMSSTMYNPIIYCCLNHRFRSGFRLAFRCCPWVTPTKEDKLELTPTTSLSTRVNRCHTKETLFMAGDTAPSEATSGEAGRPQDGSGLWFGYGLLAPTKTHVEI
Assay: Inhibition of [125I]neurokinin A (NKA) binding in human Tachykinin receptor 2 of chinese hamster ovary (hNK-2-CHO) cell membranes.

| Ki | Structure (SMILES) |
| --- | --- |
| 8.33 µM | COC(=O)[C@@H](NC(=O)c1cc(-c2ccccc2)nc2ccccc12)c1ccccc1 |
| 1.22 µM | COC(=O)[C@H](NC(=O)c1cc(-c2ccccc2)nc2ccccc12)c1ccccc1 |
